Data: paper PMC2359919, “Molecular targeting of retinoic acid metabolism in neuroblastoma: the role of the CYP26 inhibitor R116010 in vitro and in vivo” (British Journal of Cancer, 2007)

How the values were obtained:
[1] = test system: CYP26B1; test: CYP26B1 mRNA expression in neuroblastoma cells, real-time PCR; assay type: cell-based, human; settings: 24 h
Method: (§1) SH-SY5Y, SH-EP (N- and S-type cells respectively derived from the parental line SK-N-SH), LAN6, IMR-32, NGP and GIMEN neuroblastoma cell lines were cultured routinely in RPMI 1640 medium containing fetal calf serum (10%) and L-glutamine (2 mM). Cells were grown at 37°C in a humidified incubator containing 5% CO2.
(§2) 13-cis-Retinoic acid and ATRA were dissolved in DMSO and diluted in cell culture medium to obtain final concentrations of 0.1–10 μM. The final concentration of DMSO in all cases was <0.2%. All experiments were performed in dim light and tubes containing retinoids were wrapped in aluminium foil.
CYP26 short hairpin RNAs (shRNAs) were generated using the siSTRIKE U6 Hairpin Cloning System (Promega, Southampton, UK). The CYP26A1, B1 and Ctrl siRNA sequences were designed using Promega software. The cDNA target sequences were CYP26A1 5′-gcgcatcgagcagaacatt; CYP26B1 5′-gtcgcggagggagaagtat; and Ctrl 5′-gccccgcaattgagaaatg. Sense and antisense strands were annealed and ligated into the linearised psiSTRIKE Neomycin Vector. SH-SY5Y cells were transfected with psi-CYP26A1 or psi-CYP26B1 either singly or in combination, or with psi-Ctrl, in six-well plates (1 μg each) or 75 cm^2 flasks (8.9 μg each) using FuGENE 6 reagent (Roche, Lewes, UK) according to the manufacturer's instructions. After a 6 h transfection, cells were treated with ATRA for 40 h and harvested for RNA isolation and HPLC analysis.
(§3) RNA was reverse-transcribed using Promega's Reverse Transcription System according to the manufacturer's instructions, using random hexamer primers. […] As internal standard, β-actin was measured simultaneously using the endogenous control assay provided by Applied Biosystems. […] Standard curves were generated from serial dilutions of cDNA prepared from cells treated with ATRA (1 μM) and the data were analysed using the GeneAmp Sequence Detection System software. CYP26C1 expression was analysed as described previously ([Taimi et al, 2004]).

[2] = set-up: method as in Villablanca et al, 1995; settings: high-dose pulse therapy after autologous bone marrow transplantation or non-myeloablative therapy; ref Villablanca et al, 1995; cited from earlier work
[3] = test system: mouse mammary carcinoma model; set-up: method as in Van Heusden et al, 2002; settings: ref Van Heusden et al, 2002; cited from earlier work
[4] = test system: MYCN; test: MYCN mRNA expression in MYCN-amplified NGP cells, real-time PCR; assay type: cell-based, human
Method: as §1, §2
as §3, with “primers. Real-time PCR was performed on 20 ng cDNA using TaqMan gene expression products for human CYP26A1, CYP26B1, CRABPII, RARβ and MYCN in combination with the TaqMan Universal PCR master mix (Applied Biosystems, Warrington, UK).” for “primers.”

CC1=C(/C=C/C(C)=C/C=C/C(C)=C/C(=O)O)C(C)(C)CCC1 [ATRA, all-trans-retinoic acid]
CYP26B1 induction ([1]; 0.1 μM retinoid, panel of neuroblastoma cell lines, relative to SH-SY5Y cells treated with 0.01 μM ATRA): induced in all cell lines examined, except IMR-32

CC1=C(/C=C/C(C)=C/C=C/C(C)=C\C(=O)O)C(C)(C)CCC1 [13cisRA, 13-cis-retinoic acid]
Peak drug levels in patients [2]: > 5 µM

C[C@@H]([C@H](c1ccc(Nc2nc3ccccc3s2)cc1)n1ccnc1)N(C)C [R116010]
Effect on CYP26B1 expression, R116010 alone ([1]; SH-SY5Y cells, R116010 1 μM alone): no effect | Effect on CYP26B1 expression, co-incubation with retinoid ([1]; SH-SY5Y cells, R116010 1 μM with ATRA or 13cisRA (0.01, 0.1 μM) vs retinoid alone): significantly increased | Antitumour activity as a single agent [3]: exhibits antitumour activity | Effect on downregulation of MYCN expression by ATRA or 13cisRA ([4]; ATRA or 13cisRA 0.1 μM with R116010 1 μM vs retinoid alone): enhanced | Effect on MYCN expression, R116010 alone ([4]; R116010 alone (1 μM)): small but significant increase
